Results: patent US12414924B2 (Duke University, priority 2016, dated 2025)
Where a chain is given by its changes, count along the chain named. Like-named read-outs stand apart in the source and are kept apart here.

What was measured:
[1] = target: T1, ERα LBD mutant Y537N (Homo sapiens, UniProt P03372, Y537N); assay: ERE-luciferase reporter gene assay in Caov2 cells, Y537N mutant receptor; assay type: cell-based; conditions: Caov2, in presence of 1 nM 17-β estradiol, 24 h
T1 construct: expressed in transfected cells; host or cells: Caov2 ovarian carcinoma cells; SKBR3 breast adenocarcinoma cells
T1 sequence (P03372 1-595 Y537N): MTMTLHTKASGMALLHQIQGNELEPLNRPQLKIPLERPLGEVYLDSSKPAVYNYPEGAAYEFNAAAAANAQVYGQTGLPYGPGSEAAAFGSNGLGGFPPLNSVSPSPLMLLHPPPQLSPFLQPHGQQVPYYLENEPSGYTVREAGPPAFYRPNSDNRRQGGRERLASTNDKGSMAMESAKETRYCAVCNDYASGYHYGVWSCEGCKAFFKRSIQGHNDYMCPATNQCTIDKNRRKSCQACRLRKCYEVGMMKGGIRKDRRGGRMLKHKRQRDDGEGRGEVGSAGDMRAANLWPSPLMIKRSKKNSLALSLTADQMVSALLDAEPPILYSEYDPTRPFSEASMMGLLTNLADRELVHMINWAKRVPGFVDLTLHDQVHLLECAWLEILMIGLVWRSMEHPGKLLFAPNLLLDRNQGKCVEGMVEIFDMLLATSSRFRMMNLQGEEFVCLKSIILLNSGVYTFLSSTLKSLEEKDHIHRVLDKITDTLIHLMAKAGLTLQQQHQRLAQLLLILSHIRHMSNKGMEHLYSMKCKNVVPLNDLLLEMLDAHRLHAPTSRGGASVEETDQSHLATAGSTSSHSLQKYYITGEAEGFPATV
Description: (§1) ExSite mutagenesis was performed using the corresponding primers as summarized in Table 1 below on a pENTR2B ERα WT construct using Pfu ultra taq polymerase. The primers were PNK phosphorylated. Following PCR amplification, the products were digested with DpnI at 37° C. for 1 hr, followed by overnight ligation at 16° C. Ligated products were transformed into DH5α bacterial cells and grown on kanamycin resistant plates. The pENTR clones were verified by sequencing and then swapped into the pcDNA-DEST vector using the Gateway system (Invitrogen) for expression analysis.
(§2) Caov2 ovarian carcinoma cells were grown in RPMI-1640 media (Gibco) supplemented with 8% Fetal Bovine Serum (FBS), Sodium Pyruvate (NaPyr) and non-essential amino acids (NEAA) and passaged every 2-3 days. SKBR3 breast adenocarcinoma cells were grown in DMEM media (Gibco) supplemented with 8% Fetal Bovine Serum (FBS), Sodium Pyruvate (NaPyr) and non-essential amino acids (NEAA) and passaged every 2-3 days. Cells were switched into a phenol-red free RPMI-1640 media supplemented with 8% charcoal stripped fetal bovine serum (CFS), NaPyr, and NEAA one day before plating for experiment. Cells were then plated in 96-well plates for experiment in the phenol red-free media an additional day before transfection.
(§3) The plots include data from five independent experiments and each value is an average of triplicates from each experiment. […]

[2] = target: T2, ERα LBD mutant Y537C (Homo sapiens, UniProt P03372, Y537C); assay: ERE-luciferase reporter gene assay in SKBR3 cells, Y537C mutant receptor; assay type: cell-based; conditions: SKBR3, in presence of 1 nM 17-β estradiol, 24 h
T2 construct: expressed in transfected cells; host or cells: Caov2 ovarian carcinoma cells; SKBR3 breast adenocarcinoma cells
T2 sequence (P03372 1-595 Y537C): T1 sequence (P03372 1-595 Y537N) with N537C
Description: as §1, §2, §3

[3] = PEARL trial, cited from earlier work
[4] = Reported Cmax in blood at doses used in prior clinical trials; assay type: in vivo; conditions: human, read-out: Converted (M) Cmax
Source text: See Maximov et al., Current ClinicalPharmacology 8(2): 135-155 (2013). […] See Assessment Report for Fablyn, 2009 (EMA). […] See Gardner et al., J Clin Pharmacol 46(1): 52-58 (2006).

[5] = target: T2, ERα LBD mutant Y537C; assay: ERE-luciferase reporter gene assay in Caov2 cells, Y537C mutant receptor; assay type: cell-based; conditions: Caov2, in presence of 1 nM 17-β estradiol, 24 h
Description: as §1, §2, §3

[6] = target: T3, wild-type (WT) ERα (Homo sapiens, UniProt P03372); assay: ERE-luciferase reporter gene assay in SKBR3 cells, wild-type receptor; assay type: cell-based; conditions: SKBR3, in presence of 1 nM 17-β estradiol, 24 h
T3 construct: expressed in transfected cells; host or cells: Caov2 ovarian carcinoma cells; SKBR3 breast adenocarcinoma cells
T3 sequence (P03372 1-595): T1 sequence (P03372 1-595 Y537N) with N537Y
Description: as §1, §2, §3

[7] = target: T3, wild-type (WT) ERα; assay: ERE-luciferase reporter gene assay in Caov2 cells, wild-type receptor; assay type: cell-based; conditions: Caov2, in presence of 1 nM 17-β estradiol, 24 h
Description: as §1, §2, §3

Oc1ccc2c(c1)CC[C@H](c1ccccc1)[C@@H]2c1ccc(OCCN2CCCC2)cc1 [Lasofoxifene]
IC90 [1]: 745 pM
IC90 [2]: 5900 pM
risk of osteoporosis ([3]; placebo-controlled): reduce the risk of osteoporosis
risk of breast cancer ([3]; post-menopausal women with osteoporosis): reduced the risk of breast cancer in post-menopausal women with osteoporosis
Cmax ([4]; 0.5 mg dose): 9e-09 M
Cmax ([4]; 1 mg dose): 1.55e-08 M
IC90 [5]: 204 pM
IC90 [6]: 3300 pM
IC90 [7]: 6.68 pM
